The numbers were not newly measured in patent US8609359B2, “Methods for determining the concentration of gamma-hydroxy butyric acid (GHB) in a sample” (Bühlmann Laboratories AG, priority 2009, dated 2013), which cites them from elsewhere.

For data set [1] the following is noted: in 1 ml of water.
For data set [2] the following is noted: when consumed with food.
Data set [3] deals with GHB receptor. The following applies: for GHB-appropriate responding: animals.
In data set [4] the target is GABAB receptor (Homo sapiens, UniProt Q9UBS5).
For data set [5] the following is noted: effects can resolve quite suddenly.

Structures are written as SMILES.

GABAB receptor, sequence (Q9UBS5 15-961 limits assumed): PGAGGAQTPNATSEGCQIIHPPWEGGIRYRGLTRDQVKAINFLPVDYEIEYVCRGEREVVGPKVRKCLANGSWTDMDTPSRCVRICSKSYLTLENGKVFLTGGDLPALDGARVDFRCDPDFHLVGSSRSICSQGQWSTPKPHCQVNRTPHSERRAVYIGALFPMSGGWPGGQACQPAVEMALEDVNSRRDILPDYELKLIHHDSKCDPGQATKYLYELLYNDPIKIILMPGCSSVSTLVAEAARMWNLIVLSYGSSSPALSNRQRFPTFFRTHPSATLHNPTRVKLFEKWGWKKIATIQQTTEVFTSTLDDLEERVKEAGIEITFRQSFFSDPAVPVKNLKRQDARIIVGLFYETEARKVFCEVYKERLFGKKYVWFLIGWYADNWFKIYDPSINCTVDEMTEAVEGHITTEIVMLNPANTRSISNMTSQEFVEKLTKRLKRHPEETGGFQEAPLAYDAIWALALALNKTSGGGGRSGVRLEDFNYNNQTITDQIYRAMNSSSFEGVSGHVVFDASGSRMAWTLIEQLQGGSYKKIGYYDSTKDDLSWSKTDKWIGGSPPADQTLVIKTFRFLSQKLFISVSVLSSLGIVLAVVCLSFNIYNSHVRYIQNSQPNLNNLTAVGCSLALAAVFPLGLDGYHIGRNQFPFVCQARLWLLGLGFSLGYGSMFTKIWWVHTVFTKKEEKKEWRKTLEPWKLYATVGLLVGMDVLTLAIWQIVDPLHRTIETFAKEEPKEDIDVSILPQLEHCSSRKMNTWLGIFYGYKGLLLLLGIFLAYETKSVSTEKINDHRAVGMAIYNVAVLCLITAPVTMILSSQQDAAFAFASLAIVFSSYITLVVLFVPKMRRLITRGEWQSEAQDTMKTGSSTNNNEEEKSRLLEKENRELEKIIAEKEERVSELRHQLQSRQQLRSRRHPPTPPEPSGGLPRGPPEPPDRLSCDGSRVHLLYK
GABAB receptor, sequence (O75899 42-941 partner): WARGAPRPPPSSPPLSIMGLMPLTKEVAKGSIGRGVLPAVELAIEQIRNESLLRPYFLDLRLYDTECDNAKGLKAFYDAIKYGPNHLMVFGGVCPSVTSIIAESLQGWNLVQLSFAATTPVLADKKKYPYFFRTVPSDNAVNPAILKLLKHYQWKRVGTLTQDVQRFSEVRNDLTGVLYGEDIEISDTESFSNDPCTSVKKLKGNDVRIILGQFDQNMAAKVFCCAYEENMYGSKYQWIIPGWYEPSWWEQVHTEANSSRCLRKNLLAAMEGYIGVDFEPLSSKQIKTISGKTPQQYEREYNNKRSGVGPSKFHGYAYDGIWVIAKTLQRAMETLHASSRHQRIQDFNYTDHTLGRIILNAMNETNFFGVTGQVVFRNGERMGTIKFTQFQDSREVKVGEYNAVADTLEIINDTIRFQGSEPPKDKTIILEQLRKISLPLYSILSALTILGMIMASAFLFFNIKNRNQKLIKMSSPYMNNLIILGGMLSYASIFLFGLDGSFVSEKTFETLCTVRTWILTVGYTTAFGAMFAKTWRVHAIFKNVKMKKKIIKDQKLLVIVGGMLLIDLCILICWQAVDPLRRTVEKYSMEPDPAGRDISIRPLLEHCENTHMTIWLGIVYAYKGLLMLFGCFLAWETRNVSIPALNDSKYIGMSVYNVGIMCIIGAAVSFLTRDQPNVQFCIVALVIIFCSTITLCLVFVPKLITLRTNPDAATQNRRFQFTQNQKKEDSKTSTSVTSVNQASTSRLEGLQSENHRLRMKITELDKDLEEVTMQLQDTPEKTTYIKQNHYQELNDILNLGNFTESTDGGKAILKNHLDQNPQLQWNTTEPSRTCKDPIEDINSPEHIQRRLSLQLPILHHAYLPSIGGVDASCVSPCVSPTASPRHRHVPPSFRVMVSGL

With `O=C([O-])CCCO.[Na+]` [sodium GHB], the “amount of sodium GHB that can be dissolved” value in data set [1] was “More than 1 g”. Also, the bioavailability entry in data set [2] is “considerably reduced”. Turning to `O=C(O)/C=C/CO` [trans-4-hydroxycrotonic acid], the GHB-appropriate responding entry in data set [3] was “do not produce GHB-appropriate responding”.

`O=C(O)CCC(O)Cc1ccc(Cl)cc1` (stereo not shown) [4-(p-chlorobenzyl)-GHB]: in data set [3], the convulsions in animals result is “cause convulsions in animals” and the GHB-appropriate responding entry is “do not produce GHB-appropriate responding”. As for `O=C(O)CCCO` [GHB, 4-hydroxybutanoic acid], the “affinity for GABAB receptor” value in data set [4] is on record as “relatively weak affinity”. Moreover, the “duration of the effects” value in data set [5] was “about four”.
